Format in all cases: in vivo
One assay relates to Cyperus species (CYPSS). Briefly: Herbicidal mixtures for weed control in transplanted paddy rice (in-water application, visual % injury). Conditions: for % Injury CYPES Ob: CYPES = Cyperus esculentus. A digest of the protocol:
(§1)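 Weeds were sown in puddled mineral soil (pH about 7.3 to 7.8, about 1.0 percent organic matter) and grown under a paddy flood in a greenhouse at about 29/26° C to the second or third true leaf stage. Compounds in acetone with Agri-dex crop oil were injected into the floodwater. Injury was rated visually after 3 weeks.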

Assay [1] deals with Leptochloa chinensis (L.) NEES (LEFCH). Described as above. The method, boiled down: as §1
Assay [2] concerns Marsilea crenata PRESL (MASCR). The description is as above. The method, boiled down: as §1
Assay [3] relates to Echinochloa species (ECHSS). Put plainly: Herbicidal mixtures for weed control in transplanted paddy rice (in-water application, visual % injury after 3 weeks). Conditions: for % Injury ECHOR Ob: ECHOR = Echinocloa oryzoides; for % Injury ECHCG Ob: ECHCG = Echinochloa crus-galli. The method, boiled down:
as §1

[4] abbreviates: Compound A Methyl 17.5 g/ha alone.
[5] abbreviates: Compound A Methyl 35 g/ha alone.
Setting [6] is: Quinclorac 140 g/ha alone (Compound A Methyl half).
[7] abbreviates: Quinclorac 140 g/ha alone (Compound A TEA half).
Setting [8] is: Compound A TEA 35 g/ha alone (Table 111).

Where “and” joins values, the source holds several entries; their conditions need not be identical. Equal values may be shown once.

Experimental findings from patent US10556865B2, “Synergistic herbicidal composition containing certain pyridine or pyrimidine carboxylic acids and certain cereal and rice herbicides” (Dow AgroSciences, LLC, priority 2007, dated 2020) are described below.

Regarding `COC(=O)c1nc(-c2ccc(Cl)c(OC)c2F)cc(N)c1Cl` [Compound A Methyl, 4-amino-3-chloro-6-(4-chloro-2-fluoro-3-methoxyphenyl)pyridine-2-carboxylic acid methyl ester], the “% Injury CYPES Ob” value with Cyperus species (CYPSS) (setting [4]) is listed as 50%; in the assay with Cyperus species (CYPSS) (Compound A Methyl 35 g/ha alone (Table 112)), 60%. For the same molecule, the “% Injury Ob” value was found to be 0% with Cyperus species (CYPSS) (CYPES, 4.38 g/ha alone); 15% with Cyperus species (CYPSS) (CYPES, 8.75 g/ha alone); 0% in assay [1] (8.75 g/ha alone); 0% in assay [1] (17.5 g/ha alone); 0% in assay [1] (35 g/ha alone); 0% in assay [3] (ECHCG, 4.38 g/ha alone). For the same molecule, the “% Injury Ob” value in assay [3] (ECHCG, 17.5 g/ha alone) is reported as 0%; in assay [3] (ECHCG, 35 g/ha alone), 25%; in assay [3] (ECHCO, 8.75 g/ha alone) it was 0%; in assay [3] (ECHCO, 17.5 g/ha alone), 25%; in assay [3] (ECHCO, 35 g/ha alone), 20%. Further, the “% Injury LEFCH Ob” value in assay [1] (setting [4]) was 10%; in assay [1] (setting [5]), 20%. Besides, the figures for the “% Injury MASCR Ob” value in assay [2] (setting [4]) and in assay [2] (setting [5]) were 0% and 50%, respectively. Further, the “% Injury ECHOR Ob” value was found to be 0% in assay [3] (setting [4]) and 10% in assay [3] (setting [5]).

As to `O=C(O)c1c(Cl)ccc2cc(Cl)cnc12` [Quinclorac], the “% Injury CYPES Ob” value in the assay with Cyperus species (CYPSS) (setting [6]) and with Cyperus species (CYPSS) (setting [7]) was 0% throughout. The “% Injury LEFCH Ob” value in assay [1] (setting [6]) and in assay [1] (setting [7]) was 0% each time. Also, the “% Injury MASCR Ob” value in assay [2] (setting [6]) and in assay [2] (setting [7]) was 0% throughout. Besides, the “% Injury ECHCG Ob” value in assay [3] (Quinclorac 70 g/ha alone) and in assay [3] (Quinclorac 140 g/ha alone) was 0% in each case. In addition, in assay [3] (Quinclorac 70 g/ha alone), the “% Injury ECHOR Ob” value amounted to 0%.

As to `COc1c(Cl)ccc(-c2cc(N)c(Cl)c(C(=O)O)n2)c1F` [Compound A TEA, 4-amino-3-chloro-6-(4-chloro-2-fluoro-3-methoxyphenyl)pyridine-2-carboxylic acid], the “% Injury CYPES Ob” value with Cyperus species (CYPSS) (Compound A TEA 17.5 g/ha alone) worked out at 30%; with Cyperus species (CYPSS) (Compound A TEA 17.5 g/ha alone (Table 112)) it was 30%; in the assay on Cyperus species (CYPSS) (Compound A TEA 35 g/ha alone (Table 112)), 70%. Moreover, the “% Injury Ob” value in the assay with Cyperus species (CYPSS) (CYPES, 35 g/ha alone) is 20% and 25%; with Cyperus species (CYPSS) (CYPES, 70 g/ha alone), 50%; in the assay on Cyperus species (CYPSS) (CYPIR, 35 g/ha alone), 10%; in the assay on Cyperus species (CYPSS) (CYPIR, 70 g/ha alone), 20%; in assay [1] (35 g/ha alone), 80%; in assay [1] (70 g/ha alone), 99%. In addition, in assay [3] (ECHCG, 70 g/ha alone), the “% Injury Ob” value was 50%. Besides, the “% Injury LEFCH Ob” value in assay [1] (Compound A TEA 17.5 g/ha alone) amounted to 10%; in assay [1] (Compound A TEA 35 g/ha alone), 15%. Moreover, the “% Injury MASCR Ob” value in assay [2] (Compound A TEA 35 g/ha alone) turned out to be 60%. Besides, the “% Injury ECHCG Ob” value in assay [3] (Compound A TEA 17.5 g/ha alone) is 10%; in assay [3] (Compound A TEA 35 g/ha alone) it was 80%; in assay [3] (setting [8]) it was 10%. The “% Injury ECHOR Ob” value in assay [3] (Compound A TEA 17.5 g/ha alone (Table 113)) stood at 0%; in assay [3] (setting [8]), 10%; in assay [3] (Compound A TEA 35 g/ha alone (Table 113)), 10%.
